Molecular target: T1, human chemokine receptor CCR3 (Homo sapiens, UniProt P51677)
T1 construct: expressed in transfected cells; host or cells: K562 cell line (hCCR3-C1 cells), membrane preparation
T1 sequence (P51677 1-355): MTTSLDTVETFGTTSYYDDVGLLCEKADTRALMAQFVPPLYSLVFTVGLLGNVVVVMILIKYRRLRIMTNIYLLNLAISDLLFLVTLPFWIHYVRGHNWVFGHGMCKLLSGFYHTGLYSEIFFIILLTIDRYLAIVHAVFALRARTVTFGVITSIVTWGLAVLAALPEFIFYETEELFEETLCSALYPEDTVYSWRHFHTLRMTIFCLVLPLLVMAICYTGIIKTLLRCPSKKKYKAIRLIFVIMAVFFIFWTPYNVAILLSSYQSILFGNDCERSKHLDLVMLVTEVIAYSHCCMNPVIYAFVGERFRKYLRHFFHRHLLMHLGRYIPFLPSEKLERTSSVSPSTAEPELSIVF
Assay: CCR3 receptor binding assay (SPA, 125I-eotaxin-1 displacement, hCCR3-C1 K562 cell membranes)
Settings: human Eotaxin-1 at human CCR3-Rezeptor; for inhibition at 1 µM: read-out: CCR3 % inh @ 1 μM; for Ki: dose range 0.1 to 10000 nM
Summary of the method: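 SPA displacement of recombinant human 125I-eotaxin-1 (30.000 dpm per well) from membranes of CCR3-transfected K562 cells (0.5-10 μg protein/well) on WGA beads. Buffer was 25 mM HEPES, 25 mM MgCl2, 1 mM CaCl2, 0.1% BSA; incubation 2 h at room temperature. Specific binding was total minus NSB (unlabelled eotaxin-1), giving % inhibition and Ki.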

Row | SMILES | inhibition at 1 µM (1 μM test compound) [%] | Ki [nM] | CCR3 % inh @ 1 μM (1 μM test compound, 1 µM) [%]
1 | CNC(=O)c1cc(C)cc(NC(=O)[C@H]2CCC(=O)N2C2CCN(Cc3ccc(Cl)c(C)c3)CC2)c1 [Example 142] | 100 | 17 | 
2 | Cc1cc(CN2CCC(N3C(=O)CC[C@@H]3C(=O)Nc3cccc(C(=O)NCC(C)(C)C)c3)CC2)ccc1Cl [Example 163] | 99 | 23 | 
3 | Cc1cc(CN2CCC(N3C(=O)N(C)C[C@H]3C(=O)Nc3cccc(-c4nc[nH]n4)c3)CC2)ccc1Cl [Example 126] | 89 | 71 | 
4 | Cc1cc(CN2CCC(N3C(=O)CC[C@H]3C(=O)NCc3ccnn3C)CC2)ccc1Cl [Example 45] | 50 |  | 
5 | COC(=O)c1cc(NC(=O)[C@H]2CCC(=O)N2C2CCN(Cc3ccc(Cl)c(C)c3)CC2)cc(C(=O)N(C)C)c1 [Example 108] | 98 | 4 | 
6 | Cc1cc(CN2CCC(N3C(=O)CC[C@H]3C(=O)N3Cc4ccccc4C(C)(C)C3)CC2)ccc1Cl [Example 61] | 57 | 492 | 
7 | CNC(=O)c1cccc(NC(=O)[C@H]2CCC(=O)N2C2CCN(Cc3ccc(Br)cc3)CC2)c1 [Example 200] | 86 | 114 | 
8 | Cc1cc(CN2CCC(N3C(=O)CC[C@@H]3C(=O)N3CCc4ccccc43)CC2)ccc1Cl [Example 13] | 71 | 373 | 
9 | Cc1cc(CN2CCC(N3C(=O)CC[C@@H]3C(=O)N3CCc4c(cccc4C(F)(F)F)C3)CC2)ccc1Cl [Example 65] | 57 | 602 | 
10 | Cc1cc(CN2CCC(N3C(=O)CC[C@H]3C(=O)Nc3cccc(Cc4ccncc4)c3)CC2)ccc1Cl [Example 66] | 81 | 658 | 
11 | CCNC(=O)c1cc(NC(=O)[C@H]2CCC(=O)N2C2CCN(Cc3ccc(Cl)c(C)c3)CC2)ccc1C [Example 165] | 90 | 62 | 
12 | Cc1cc(CN2CCC(N3C(=O)CC[C@@H]3C(=O)Nc3cc(C(N)=O)cc(C(N)=O)c3)CC2)ccc1Cl [Example 32] | 82 | 145 | 
13 | Cc1cc(CN2CCC(N3C(=O)CC[C@H]3C(=O)N3CCc4cccc(C(F)(F)F)c4C3)CC2)ccc1Cl [Example 56] | 76 | 254 | 
14 | Cc1nnc(NC(=O)c2cccc(NC(=O)[C@H]3CCC(=O)N3C3CCN(Cc4ccc(Cl)c(C)c4)CC3)c2)s1 [Example 154] | 98 | 14 | 
15 | COC(=O)CC(NC(=O)[C@@H]1CCC(=O)N1C1CCN(Cc2ccc(Cl)c(C)c2)CC1)c1ccccn1 (stereo partly shown) [Example 97] | 50 | 669 | 
16 | Cc1cc(CN2CCC(N3C(=O)CC[C@@H]3C(=O)Nc3cccc(C(=O)NC4CC4)c3)CC2)ccc1Cl [Example 148] | 99 | 10 | 
17 | Cc1cc(CN2CCC(N3C(=O)CC[C@@H]3C(=O)NCc3cccc4[nH]ccc34)CC2)ccc1Cl [Example 68] | 48 | 715 | 
18 | Cc1cc(CN2CCC(N3C(=O)CC[C@@H]3C(=O)Nc3cccc(C(=O)N4CCCC4)c3)CC2)ccc1Cl [Example 146] | 100 | 8 | 
19 | Cc1cc(CN2CCC(N3C(=O)CC[C@H]3C(=O)NC3CCC(F)(F)CC3)CC2)ccc1Cl [Example 48] | 40 | 965 | 
20 | CNC(=O)N1CCc2cc(NC(=O)[C@H]3CCC(=O)N3C3CCN(Cc4ccc(Cl)c(C)c4)CC3)ccc21 [Example 37] | 80 | 175 | 
21 | CNC(=O)c1cccc(NC(=O)[C@H]2CCC(=O)N2C2CCN(Cc3ccc(Cl)c(F)c3)CC2)c1 [Example 204] | 80 | 299 | 
22 | CNC(=O)c1cc(NC(=O)[C@H]2CCC(=O)N2C2CCN(Cc3ccc(Cl)c(C)c3)CC2)ccc1OC [Example 180] | 97 | 16 | 
23 | CCn1cc(NC(=O)[C@H]2CCC(=O)N2C2CCN(Cc3ccc(Cl)c(C)c3)CC2)cc1C(=O)NC [Example 155] | 98 | 15 | 
24 | Cc1cc(NC(=O)[C@H]2CCC(=O)N2C2CCN(Cc3ccc(Cl)c(C)c3)CC2)cc(C(=O)N(C)C)c1 [Example 167] | 98 | 6 | 
25 | Cc1cc(CN2CCC(N3C(=O)CC[C@@H]3C(=O)NC3CCC(NS(=O)(=O)c4ccccc4)CC3)CC2)ccc1Cl (stereo partly shown) [Example 29] | 94 | 31 | 
26 | COC(=O)c1csc(NC(=O)[C@H]2CCC(=O)N2C2CCN(Cc3ccc(Cl)c(C)c3)CC2)n1 [Example 99] | 91 | 67 | 
27 | CCNS(=O)(=O)c1cccc(NC(=O)[C@@H]2CCC(=O)N2C2CCN(Cc3ccc(Cl)c(C)c3)CC2)c1 [Example 12] | 84 | 88 | 

Row | SMILES | inhibition at 1 µM (1 μM test compound) [%] | Ki [nM] | CCR3 % inh @ 1 μM (1 μM test compound, 1 µM) [%]
28 | CNC(=O)c1cccc(NC(=O)[C@H]2CCC(=O)N2C2CCN(Cc3ccc(C)c(C)c3)CC2)c1 [Example 205] | 76 | 247 | 
29 | Cc1cc(CN2CCC(N3C(=O)CC[C@@H]3C(=O)N(C)c3ccccn3)CC2)ccc1Cl [Example 103] | 54 | 1400 | 
30 | CCN(CC)C(=O)c1cccc(NC(=O)[C@H]2CCC(=O)N2C2CCN(Cc3ccc(Cl)c(C)c3)CC2)c1 [Example 157] | 99 | 15 | 
31 | Cc1nc(C2(NC(=O)[C@@H]3CCC(=O)N3C3CCN(Cc4ccc(Cl)c(C)c4)CC3)CCCC2)no1 [Example 51] | 30 | 1620 | 
32 | Cc1cc(CN2CCC(N3C(=O)N(C)C[C@H]3C(=O)Nc3ccno3)CC2)ccc1Cl [Example 129] | 70 | 334 | 
33 | Cc1cc(CN2CCC(N3C(=O)CC[C@@H]3C(=O)N(C)c3ccccc3)CC2)ccc1Cl [Example 104] | 24 | 2400 | 
34 | Cc1cc(CN2CCC(N3C(=O)N(C)C[C@H]3C(=O)Nc3cc(C(C)(C)C)no3)CC2)ccc1Cl [Example 124] | 93 | 41 | 
35 | Cc1cc(CN2CCC(N3C(=O)CC[C@@H]3C(=O)Nc3nc(C(C)C)c(C(=O)N(C)C)s3)CC2)ccc1Cl [Example 189] | 100 | 4 | 
36 | Cc1cc(CN2CCC(N3C(=O)CC[C@@H]3C(=O)N[C@H]3CC[C@H](NC(=O)Nc4ccccc4)CC3)CC2)ccc1Cl [Example 44] | 63 | 552 | 
37 | CNC(=O)c1cccc(NC(=O)[C@H]2CCC(=O)N2C2CC3CCC(C2)N3Cc2ccc(Cl)c(C)c2)c1 (stereo partly shown) [Example 84] | 77 | 232 | 
38 | CNC(=O)c1cccc(NC(=O)[C@H]2CCC(=O)N2C2CCN(Cc3ccc(F)c(Cl)c3)CC2)c1 [Example 203] | 75 | 237 | 
39 | Cc1cc(CN2CCC(N3C(=O)CC[C@H]3C(=O)NCc3ccnn3C)CC2)ccc1Cl [Example 69] |  |  | 55
40 | Cc1cc(CN2CCC(N3C(=O)CC[C@@H]3C(=O)Nc3cccc(C(=O)N(C)C4CC4)c3)CC2)ccc1Cl [Example 144] | 100 | 7 | 
41 | CCCCS(=O)(=O)NC1CCCN(C(=O)[C@@H]2CCC(=O)N2C2CCN(Cc3ccc(Cl)c(C)c3)CC2)C1 (stereo partly shown) [Example 49] | 41 | 1180 | 
42 | COc1ccccc1C1CCCN(C(=O)[C@H]2CCC(=O)N2C2CCN(Cc3ccc(Cl)c(C)c3)CC2)C1 (stereo partly shown) [Example 43] | 59 | 523 | 
43 | Cc1cc(CN2CCC(N3C(=O)CC[C@@H]3C(=O)Nc3cc(C(=O)N(C)C)cc(C4CC4)n3)CC2)ccc1Cl [Example 214] | 101 | 2 | 
44 | Cc1cc(CN2CCC(N3C(=O)CC[C@@H]3C(=O)Nc3cc(C4CC4)nn3C)CC2)ccc1Cl [Example 11] | 92 | 27 | 
45 | CNC(=O)c1cccc(NC(=O)[C@H]2CCC(=O)N2C2CCN(Cc3cc(Br)cs3)CC2)c1 [Example 207] | 75 | 442 | 
46 | Cc1cc(CN2CCC(N3C(=O)CC[C@@H]3C(=O)N3CCc4cccc(Br)c4C3)CC2)ccc1Cl [Example 54] | 90 | 89 | 
47 | Cc1cc(CN2CCC(N3C(=O)CC[C@@H]3C(=O)N[C@H]3CCN(C(=O)OC(C)(C)C)C3)CC2)ccc1Cl [Example 14] | 60 | 540 | 
48 | Cc1cc(CN2CCC(N3C(=O)CC[C@@H]3C(=O)Nc3cccc(C(=O)N4CCC4)c3)CC2)ccc1Cl [Example 152] | 100 | 12 | 
49 | Cc1cc(CN2CCC(N3C(=O)CCC3C(=O)Nc3cc(-c4c(C)noc4C)ccn3)CC2)ccc1Cl (stereo not shown) [Example 192] | 96 |  | 
50 | CNC(=O)c1cccc(NC(=O)[C@H]2CCC(=O)N2C2CCN(Cc3ccc(Cl)c(C)c3)CC2)c1 [Example 151] | 95 | 18 | 
51 | Cc1cc(CN2CCC(N3C(=O)CC[C@@H]3C(=O)Nc3cccc(C(=O)N4CCCCC4CO)c3)CC2)ccc1Cl (stereo partly shown) [Example 153] | 99 | 12 | 
52 | CN1C[C@H](C(=O)Nc2cc(C3CC3)nn2C)N(C2CCN(Cc3ccc(OC(F)(F)F)c(F)c3)CC2)C1=O [Example 197] | 44 | 1250 | 
53 | Cc1cc(CN2CCC(N3C(=O)CC[C@@H]3C(=O)Nc3cc(C(=O)N(C)C)ccn3)CC2)ccc1Cl [Example 147] | 99 | 8 | 

Source: patent US8653075B2, “Therapeutic methods employing substituted piperidines which are CCR3 antagonists” (Boehringer Ingelheim International GmbH, priority 2009, dated 2014)
